The source made the active and inactive calls. No stated cut-off is given here; in the data, actives have a measured IC50 and inactives only a lower limit.
Target: Envelope glycoprotein gp160 (Human immunodeficiency virus 1, UniProt Q6QLK5)
Assay: inhibitors of HIV fusion peptide binding, primary screen, biochemical, uHTS, fluorescence dequenching (AID 1986)

Chain of Envelope glycoprotein gp160 (Q6QLK5 whole entry, the tested form may be a part): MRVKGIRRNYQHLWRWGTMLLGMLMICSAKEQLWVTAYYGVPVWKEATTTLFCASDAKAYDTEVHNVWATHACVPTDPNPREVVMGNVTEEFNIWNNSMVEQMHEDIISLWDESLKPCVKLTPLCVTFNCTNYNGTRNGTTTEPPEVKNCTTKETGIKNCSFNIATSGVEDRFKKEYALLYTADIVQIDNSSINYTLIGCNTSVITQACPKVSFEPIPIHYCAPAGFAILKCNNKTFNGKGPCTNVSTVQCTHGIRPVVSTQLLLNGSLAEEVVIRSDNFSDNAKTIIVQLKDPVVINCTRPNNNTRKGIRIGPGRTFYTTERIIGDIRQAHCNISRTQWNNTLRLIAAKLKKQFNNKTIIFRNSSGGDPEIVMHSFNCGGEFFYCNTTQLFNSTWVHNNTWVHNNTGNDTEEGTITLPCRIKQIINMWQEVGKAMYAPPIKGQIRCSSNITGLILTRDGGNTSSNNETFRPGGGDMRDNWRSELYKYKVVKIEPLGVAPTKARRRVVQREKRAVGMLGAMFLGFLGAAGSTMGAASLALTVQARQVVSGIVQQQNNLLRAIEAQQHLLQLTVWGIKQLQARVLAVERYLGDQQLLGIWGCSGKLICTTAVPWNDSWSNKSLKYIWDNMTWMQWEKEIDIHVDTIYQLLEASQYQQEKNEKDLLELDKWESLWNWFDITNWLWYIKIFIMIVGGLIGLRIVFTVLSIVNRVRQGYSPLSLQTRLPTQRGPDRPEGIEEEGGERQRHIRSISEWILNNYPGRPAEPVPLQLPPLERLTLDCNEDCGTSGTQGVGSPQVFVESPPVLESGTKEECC

**Q.** CCOc1cc(/C=C2/C(=N)N3C(=NC2=O)SN=C3S(C)(=O)=O)ccc1OS(=O)(=O)c1ccccc1 was tested. Which IC50 did it give?
**A.** 12.2 µM (active)

**Q.** For O=C(O)c1cc(-c2ccc(/C=C3\NC(=O)N(c4ccc(Cl)cc4)C3=O)o2)ccc1Cl, which IC50 is on record?
**A.** 22.6 µM (active)

**Q.** For O=C1NC(=S)N(c2ccc(F)cc2)C(=O)/C1=C\c1ccoc1, which IC50 is on record?
**A.** 5.78 µM (active)

**Q.** For Cc1cc(N2C(=O)C(O)=C(C(=O)c3cc4ccccc4o3)C2c2cccc(Br)c2)no1 (stereo not given), which IC50 is on record?
**A.** 16.4 µM (active)

**Q.** Which IC50 does the source give for O=c1cc(-c2ccccc2Cl)oc2c(NS(=O)(=O)c3cc(Cl)cc(Cl)c3O)ccc(O)c12 here?
**A.** 9.18 µM (active)
